Tests used:
[1] = converted into form III on milling; per U.S. Pat. No. 6,673,838; cited from earlier work
[2] = in vivo; cited from earlier work
[3] = solubility of ODV succinate forms; assay type: physicochemical; settings: novel hydrate form of the present invention

For `CN(C)CC(c1ccc(O)cc1)C1(O)CCCCC1.O.O=C(O)CCC(=O)O` (stereo not drawn) [ODV succinate monohydrate form I], the “stability of polymorphic form on milling” value [1] is listed as “unstable”.

In the case of `CN(C)CC(c1ccc(O)cc1)C1(O)CCCCC1.O=C(O)CCC(=O)O` (stereo not drawn) [ODV succinate, O-desmethyl venlafaxine succinate], the “absorption in the gastrointestinal tract” value [2] is given as “well absorbed”.

Work on `CN(C)CC(c1ccc(O)cc1)C1(O)CCCCC1.O=C(O)CCC(=O)O` (stereo not drawn) [novel hydrate form of ODV succinate, O-desmethyl venlafaxine succinate] yielded a solubility [3] of 55 mg/mL.

— patent US20100035994A1, “NOVEL HYDRATE FORM OF O-DESMETHYL VENLAFAXINE SUCCINATE” (priority 2006, published 2010)
